Target: SARS-CoV-2 M^PRO (Severe acute respiratory syndrome coronavirus 2, UniProt P0DTD1)
Experiment: biochemical
Type: biochemical
Conditions: In vitro potency data; 30 min pre-incubation, 25 nM M^pro, 25 µM substrate; read-out: IC50

SMILES | IC50
N#Cc1cc(OC(F)(F)F)ccc1N(C(=O)[C@H](F)Cl)[C@@H](C(=O)NC1CCC(F)(F)CC1)c1cncnc1 (single isomer, unassigned) [INSCoV-517C(4), 2-Chloro-N-(2-cyano-4-(trifluoromethoxy)phenyl)-N-(2-((4,4-difluorocyclohexyl)amino)-2-oxo-1-(pyrimidin-5-yl)ethyl)-2-fluoroacetamide] | > 25000 nM
O=C(NC1CCC(F)(F)CC1)C(c1cncnc1)N(C(=O)CCl)c1ccc(-c2ccno2)cc1 (single isomer, unassigned) [INSCoV-600J(2), 2-Chloro-N-(2-((4,4-difluorocyclohexyl)amino)-2-oxo-1-(pyrimidin-5-yl)ethyl)-N-(4-(isoxazol-5-yl)phenyl)acetamide] | 530 nM
O=C(NC1CCC(F)(F)CC1)C(c1cncnc1)N(C(=O)CCl)c1ccc(-c2cncs2)cc1 (single isomer, unassigned) [INSCoV-600K(2), 2-Chloro-N-(2-((4,4-difluorocyclohexyl)amino)-2-oxo-1-(pyrimidin-5-yl)ethyl)-N-(4-(thiazol-5-yl)phenyl)acetamide] | 430 nM
O=C(NC1CCC(F)(F)CC1)C(c1cncnc1)N(C(=O)[C@@H]1CO1)c1ccc(-c2cnco2)cc1 (single isomer, unassigned) [INSCoV-600R(2A)] | 2930 nM
O=C(NC1CCC(F)(F)CC1)C(c1cnccn1)N(C(=O)CCl)c1ccc(-c2cncs2)cc1 (single isomer, unassigned) [INSCoV-601G(1), 2-Chloro-N-(2-((4,4-difluorocyclohexyl)amino)-2-oxo-1-(pyrazin-2-yl)ethyl)-N-(4-(thiazol-5-yl)phenyl)acetamide] | 60 nM
O=C(NC1CCC(F)(F)CC1)C(c1cnccn1)N(C(=O)CCl)c1ccc(-c2cncs2)cc1 (single isomer, unassigned) [INSCoV-601G(2), 2-Chloro-N-(2-((4,4-difluorocyclohexyl)amino)-2-oxo-1-(pyrazin-2-yl)ethyl)-N-(4-(thiazol-5-yl)phenyl)acetamide] | 270 nM
O=C(NC1CCC(F)(F)CC1)C(c1cnccn1)N(C(=O)CCl)c1ccc(-c2ccns2)cc1 (single isomer, unassigned) [INSCoV-601I(2), 2-chloro-N-(2-((4,4-difluorocyclohexyl)amino)-2-oxo-1-(pyrazin-2-yl)ethyl)-N-(4-(isothiazol-5-yl)phenyl)acetamide] | 210 nM
CC(C(=O)NC1CCC(F)(F)CC1)(c1cnccn1)N(C(=O)CCl)c1ccc(-c2ccns2)cc1 (single isomer, unassigned) [INSCoV-601N(1), 2-(2-Chloro-N-(4-(isothiazol-5-yl)phenyl)acetamido)-N-(4,4-difluorocyclohexyl)-2-(pyrazin-2-yl)propanamide] | 130 nM
CC(C(=O)NC1CCC(F)(F)CC1)(c1cnccn1)N(C(=O)CCl)c1ccc(-c2ccns2)cc1 (single isomer, unassigned) [INSCoV-601N(2), 2-(2-Chloro-N-(4-(isothiazol-5-yl)phenyl)acetamido)-N-(4,4-difluorocyclohexyl)-2-(pyrazin-2-yl)propanamide] | 3490 nM
CC(C(=O)NC1CCC(F)(F)CC1)(c1cncnc1)N(C(=O)CCl)c1ccc(-c2ccno2)cc1 (single isomer, unassigned) [INSCoV-601P(1B), 2-(2-Chloro-N-(4-(isoxazol-5-yl)phenyl)acetamido)-N-(4,4-difluorocyclohexyl)-2-(pyrimidin-5-yl)propanamide] | 13700 nM
O=C(N[C@H]1CCC(F)(F)C1)C(c1cncnc1)N(C(=O)CCl)c1ccc(-c2cncs2)cc1 (single isomer, unassigned) [INSCoV-601S(1B)] | 980 nM
O=C(NC1CCC(F)(F)CC1)[C@H](c1cncnc1)N(C(=O)[C@H](F)Cl)c1ccc(-c2cncs2)cc1 (single isomer, unassigned) [INSCoV-614(1A), 2-Chloro-N-(2-((4,4-difluorocyclohexyl)amino)-2-oxo-1-(pyrimidin-5-yl)ethyl)-2-fluoro-N-(4-(thiazol-5-yl)phenyl)acetamide] | > 25000 nM
O=C(NC1CCC(F)(F)CC1)[C@H](c1cncnc1)N(C(=O)[C@H](F)Cl)c1ccc(-c2cncs2)cc1 (single isomer, unassigned) [INSCoV-614(2A), 2-Chloro-N-(2-((4,4-difluorocyclohexyl)amino)-2-oxo-1-(pyrimidin-5-yl)ethyl)-2-fluoro-N-(4-(thiazol-5-yl)phenyl)acetamide] | 6940 nM
O=C(NC1CCC(F)(F)CC1)[C@H](c1cncnc1)N(C(=O)[C@H](F)Cl)c1ccc(-c2cncs2)cc1 (single isomer, unassigned) [INSCoV-614(2B), 2-Chloro-N-(2-((4,4-difluorocyclohexyl)amino)-2-oxo-1-(pyrimidin-5-yl)ethyl)-2-fluoro-N-(4-(thiazol-5-yl)phenyl)acetamide] | 1700 nM
O=C(NC1CCC(F)(F)CC1)[C@@H](c1cncnc1)N(C(=O)[C@H](F)Cl)c1ccc(-c2ccno2)cc1 (single isomer, unassigned) [INSCoV-614A(1A), 2-Chloro-N-(2-((4,4-difluorocyclohexyl)amino)-2-oxo-1-(pyrimidin-5-yl)ethyl)-2-fluoro-N-(4-(isoxazol-5-yl)phenyl)acetamide] | 6740 nM
O=C(NC1CCC(F)(F)CC1)[C@@H](c1cncnc1)N(C(=O)[C@H](F)Cl)c1ccc(-c2ccno2)cc1 (single isomer, unassigned) [INSCoV-614A(1B), 2-Chloro-N-(2-((4,4-difluorocyclohexyl)amino)-2-oxo-1-(pyrimidin-5-yl)ethyl)-2-fluoro-N-(4-(isoxazol-5-yl)phenyl)acetamide] | 5050 nM
O=C(NC1CCC(F)(F)CC1)[C@@H](c1cncnc1)N(C(=O)[C@H](F)Cl)c1ccc(-c2ccno2)cc1 (single isomer, unassigned) [INSCoV-614A(2B), 2-Chloro-N-(2-((4,4-difluorocyclohexyl)amino)-2-oxo-1-(pyrimidin-5-yl)ethyl)-2-fluoro-N-(4-(isoxazol-5-yl)phenyl)acetamide] | 9110 nM
C=CS(=O)(=O)N(c1ccc(C(C)(C)C)cc1)[C@@H](C(=O)NC1CCCCC1)c1cccnc1 [INSCoV-110-1] | 36000 nM

SMILES | IC50
CC(C)(C)c1ccc(N(C(=O)CCl)C(C(=O)NC2CCCCC2)c2cccnc2)cc1 (stereo not drawn) [INSCoV-110A, 2-(4-tert-butyl-N-(2-chloroacetyl)anilino)-N-cyclohexyl-2-(3-pyridyl)acetamide] | 1140 nM
CC(C)(C)c1ccc(N(C(=O)C=O)C(C(=O)NC2CCCCC2)c2cccnc2)cc1 (stereo not drawn) [INSCoV-110D] | > 50000 nM
O=C(NC1CCCCC1)C(c1cncnc1)N(C(=O)CCl)c1ccc(-c2cnco2)cc1 (stereo not drawn) [INSCoV-501A, 2-Chloro-N-(2-(Cyclohexylamino)-2-oxo-1-(Pyrimidin-5-yl)Ethyl)-N-(4-(Oxazol-5-yl)Phenyl)Acetamide] | 290 nM
O=C(NC1CCS(=O)(=O)CC1)C(c1cncnc1)N(C(=O)CCl)c1ccc(-c2cnco2)cc1 (stereo not drawn) [INSCoV-501B, 2-Chloro-N-(2-((1,1-Dioxidotetrahydro-2H-Thiopyran-4-yl)Amino)-2-Oxo-1-(Pyrimidin-5-yl)Ethyl)-N-(4-(Oxazol-5-yl)Phenyl)Acetamide] | 600 nM
Cc1ccc(S(=O)(=O)CNC(=O)C(c2cncnc2)N(C(=O)CCl)c2ccc(-c3cnco3)cc2)cc1 (stereo not drawn) [INSCoV-501D] | 2510 nM
O=C(NCCc1ccccc1)C(c1cncnc1)N(C(=O)CCl)c1ccc(-c2cnco2)cc1 (stereo not drawn) [INSCoV-501E] | 600 nM
Cc1cc(-c2cnco2)ccc1N(C(=O)CCl)C(C(=O)NC1CCCCC1)c1cncnc1 (stereo not drawn) [INSCoV-501G] | 260 nM
CCS(=O)(=O)N1CCC(NC(=O)C(c2cncnc2)N(C(=O)CCl)c2ccc(-c3cnco3)cc2)CC1 (stereo not drawn) [INSCoV-501H(1)] | 630 nM
O=C(NC1CCN(S(=O)(=O)C2CC2)CC1)C(c1cncnc1)N(C(=O)CCl)c1ccc(-c2cnco2)cc1 (stereo not drawn) [INSCoV-501H] | 720 nM
O=C(NC1CCC(F)(F)CC1)C(c1cncnc1)N(C(=O)CCl)c1ccc(-c2cnco2)cc1 (stereo not drawn) [INSCoV-501I, 2-Chloro-N-(2-((4,4-difluorocyclohexyl)amino)-2-oxo-1-(pyrimidin-5-yl)ethyl)-N-(4-(oxazol-5-yl)phenyl)acetamide] | 390 nM
O=C(NC1CCCCC1)C(c1cnccn1)N(C(=O)CCl)c1ccc(-c2cnco2)cc1 (stereo not drawn) [INSCoV-501L] | 400 nM
O=C(NC1CCS(=O)(=O)CC1)C(c1cnccn1)N(C(=O)CCl)c1ccc(-c2cnco2)cc1 (stereo not drawn) [INSCoV-501M, 2-Chloro-N-(2-((1,1-Dioxidotetrahydro-2H-Thiopyran-4-yl)Amino)-2-Oxo-1-(Pyrazin-2-yl)Ethyl)-N-(4-(Oxazol-5-yl)Phenyl)Acetamide] | 450 nM
Cc1ccc(S(=O)(=O)CNC(=O)C(c2cnccn2)N(C(=O)CCl)c2ccc(-c3cnco3)cc2)cc1 (stereo not drawn) [INSCoV-501O, 2-Chloro-N-(4-(Oxazol-5-yl)Phenyl)-N-(2-Oxo-1-(Pyrazin-2-yl)-2-((Tosylmethyl)Amino)Ethyl)Acetamide] | 1500 nM
O=C(NCCc1ccccc1)C(c1cnccn1)N(C(=O)CCl)c1ccc(-c2cnco2)cc1 (stereo not drawn) [INSCoV-501P, 2-Chloro-N-(4-(Oxazol-5-vl)Phenyl)-N-(2-Oxo-2-(Phenethylamino)-1-(Pyrazin-2-yl)Ethyl)Acetamide] | 560 nM
CCS(=O)(=O)N1CCC(NC(=O)C(c2cnccn2)N(C(=O)CCl)c2ccc(-c3cnco3)cc2)CC1 (stereo not drawn) [INSCoV-501R(1), 2-Chloro-N-(2-((1-(Ethylsulfonyl)Piperidin-4-yl)Amino)-2-Oxo-1-(Pyrazin-2-yl)Ethyl)-N-(4-(Oxazol-5-yl)Phenyl)Acetamide] | 570 nM
O=C(NC1CCN(S(=O)(=O)C2CC2)CC1)C(c1cnccn1)N(C(=O)CCl)c1ccc(-c2cnco2)cc1 (stereo not drawn) [INSCoV-501R, 2-Chloro-N-(2-((1-(Cyclopropylsulfonyl)Piperidin-4-yl)Amino)-2-Oxo-1-(Pyrazin-2-yl)Ethyl)-N-(4-(Oxazol-5-yl)Phenyl)Acetamide] | 480 nM
O=C(NC1CCC(F)(F)CC1)C(c1cnccn1)N(C(=O)CCl)c1ccc(-c2cnco2)cc1 (stereo not drawn) [INSCoV-501S, 2-Chloro-N-(2-((4,4-Difluorocyclohexyl)Amino)-2-Oxo-1-(Pyrazin-2-yl)Ethyl)-N-(4-(Oxazol-5-yl)Phenyl)Acetamide] | 240 nM
O=C(NC1CCCCC1)C(c1cccnc1)N(C(=O)CCl)c1ccc(-c2cnco2)cc1 (stereo not drawn) [INSCoV-501] | 680 nM
